Experimental data from patent US8926082B2, “Optically polymerizable ink jet ink, ink cartridge, and printer” (Ricoh Company, Ltd., priority 2011, dated 2015).

Key:
[1] = skin sensitization test by Local Lymph Node Assay (LLNA), Stimulation Index; type: in vivo; settings: SI less than 3 = no problem
Excerpt: However, inkjet ink in which such compounds are blended to provide a curing property sufficient for practical use has a relatively high viscosity in comparison with typical optical polymerizable inkjet ink. Therefore, for example, if a desirable high image density is to be obtained by increasing the blend ratio of a pigment, such inkjet ink requires an extra decrease in the viscosity to achieve stable ejection.
The Local Lymph Node Assay (LLNA) method is a skin sensitization test defined as OECD Test Guideline 429 and as described in documents such as an issue of September 2005, Vol. 25, No. 9, p 55, published by CMC Publishing Co., Ltd., when a compound has a Stimulation Index (SI) of less than 3, which is an indicator of the degree of […], the compound is determined to have no problem with regard to the skin sensitization.
The details of A1 to A14, B1 and B2, C1 and C2, and D1 in Tables 1 to 8 are as follows: The value in the parentheses at the end of A1 to A14 is an SI value. “negative” or “none” means evaluation of skin sensitization as “negative” or “none” in the MSDS sheet in which the SI value is naturally less than 3.

[2] = "negative" or "none": SI value naturally less than 3; cited from earlier work

C=C(C)C(=O)OC1CCOC1=O (stereo not drawn) [Example A4, γ-butylo lactone methacrylate]
SI value (Stimulation Index) [1]: 2.1

C=CC(=O)NCCO [Example A11, Hydroxyethyl acrylamide]
evaluation of skin sensitization in the MSDS sheet [2]: None

Caprolactone-modified dipentaerythritol hexaacrylate [Example A7]
evaluation of skin sensitization in the MSDS sheet [2]: negative
